According to patent publication US4089965A, “Thiazolylphenylguanidines as antirhinovirus agents” (American Cyanamid Company, priority 1977, dated 1978):
In brackets after ≈: the same amount, converted by molar mass.

Tests used:
Rhinovirus Serotype 14 = experiment: Plaque assay, minimal inhibitory concentration; type: cell-based; details: Enterovirus; HeLa Cells; inhibiting virus plaque formation by 50%
Rhinovirus Serotype 39 = experiment: Plaque assay, minimal inhibitory concentration; type: cell-based; details: Enterovirus; HeLa Cells; inhibiting virus plaque formation by 50%
Coxsackievirus A-5 = experiment: Plaque assay, minimal inhibitory concentration; type: cell-based; details: HeLa Cells, inhibiting virus plaque formation by 50%
Coxsackievirus A-11 = experiment: Plaque assay, minimal inhibitory concentration; type: cell-based; details: HeLa Cells, inhibiting virus plaque formation by 50%
Coxsackievirus B-1 = experiment: Plaque assay, minimal inhibitory concentration; type: cell-based; details: HeLa Cells, inhibiting virus plaque formation by 50%
Coxsackievirus B-2 = experiment: Plaque assay, minimal inhibitory concentration; type: cell-based; details: HeLa Cells, inhibiting virus plaque formation by 50%
Coxsackievirus B-5 = experiment: Plaque assay, minimal inhibitory concentration; type: cell-based; details: HeLa Cells, inhibiting virus plaque formation by 50%
Rhinovirus Serotype 1B = experiment: Virus Yield Reduction Test; type: cell-based; details: for Virus yield: HeLa
rhinovirus 32 = experiment: Clinical challenge study, virus isolation from nasal washings; type: in vivo, human; details: individual subjects on medication, intranasal; + or 0
[1] = tested on: rhinoviruses and other picornaviruses, including coxsackie and poliovirus; type: cell-based
rhinoviruses = experiment: Activity in three human epithelial cell lines; type: cell-based, rhinovirus; details: Hela, L-132 and Detroit-6
Rhinovirus Type 10 = experiment: Viral sensitivity, filter disc method; type: cell-based; details: strain 204CV14; about 50 mcg per disc, HeLa
Experimental: (§1) In the test for viral sensitivity, by the filter disc method, 5 mg. of 1-(4-phenyl-2-thiazolyl)-3-phenylguanidine was dissolved in 1-2 drops of dimethylsulfoxide and 2.5 ml. of saline. Filter paper discs, when saturated with the solution, absorbed about 50 mcg. of the compound.
(§2) Sensitivity tests were performed by a modification of the method of Herrmann, et al., Proc. Soc. Exp. Biol. & Med., 103, 625 (1960). HeLa monolayers in 150 mm plastic dishes were infected with 1.0 ml. of rhinovirus suspension known to produce destruction of 80-90% of the cells in 4 to 5 days. Following viral adsorption, the cells were overlayed with 30 ml. of Eagle's minimum essential medium containing Noble agar at 0.5%, bovine fetal serum at 2.0%, diethylaminoethyl dextran at 100 mcg/ml. and magnesium chloride at 3 millimoles. Filter discs (1/4 inch Carl Schleicher and Schuell Co., No. 740E), containing about 50 mcg. of 1-(4-phenyl-2-thiazolyl)-3-phenylguanidine, were placed on the solidified surface and the culture plates incubated at 33° C. After 4 to 5 days, the overlay medium was decanted and the cells stained with 0.1% crystal violet in 20% ethanol. A zone of 10 mm or more in which at least two-thirds of the cells were protected from viral cytopathic effects, indicates antiviral activity. The following Table III lists 35 rhinovirus serotypes which were inhibited by this compound.

Rhinovirus Type 11 = experiment: Viral sensitivity, filter disc method; type: cell-based; details: strain 1CV15; about 50 mcg per disc, HeLa
Experimental: as §1, §2

Rhinovirus Type 12 = experiment: Viral sensitivity, filter disc method; type: cell-based; details: strain 181CV16; about 50 mcg per disc, HeLa
Experimental: as §1, §2

Rhinovirus Type 13 = experiment: Viral sensitivity, filter disc method; type: cell-based; details: strain 353; about 50 mcg per disc, HeLa
Experimental: as §1, §2

Rhinovirus Type 1B = experiment: Viral sensitivity, filter disc method; type: cell-based; details: strain B632; about 50 mcg per disc, HeLa, 33° C., 4 to 5 days
Experimental: as §1, §2

Rhinovirus Type 21 = experiment: Viral sensitivity, filter disc method; type: cell-based; details: strain 47CV21; about 50 mcg per disc, HeLa
Experimental: as §1, §2

Rhinovirus Type 22 = experiment: Viral sensitivity, filter disc method; type: cell-based; details: strain 127CV22; about 50 mcg per disc, HeLa
Experimental: as §1, §2

Rhinovirus Type 25 = experiment: Viral sensitivity, filter disc method; type: cell-based; details: strain 5426CV26; about 50 mcg per disc, HeLa
Experimental: as §1, §2

Rhinovirus Type 26 = experiment: Viral sensitivity, filter disc method; type: cell-based; details: strain 5660CV27; about 50 mcg per disc, HeLa
Experimental: as §1, §2

Rhinovirus Type 29 = experiment: Viral sensitivity, filter disc method; type: cell-based; details: strain 179E; about 50 mcg per disc, HeLa
Experimental: as §1, §2

Rhinovirus Type 34 = experiment: Viral sensitivity, filter disc method; type: cell-based; details: strain 137-3; about 50 mcg per disc, HeLa
Experimental: as §1, §2

Rhinovirus Type 38 = experiment: Viral sensitivity, filter disc method; type: cell-based; details: strain CH79; about 50 mcg per disc, HeLa
Experimental: as §1, §2

Rhinovirus Type 50 = experiment: Viral sensitivity, filter disc method; type: cell-based; details: strain A2 No. 58; about 50 mcg per disc, HeLa
Experimental: as §1, §2

Rhinovirus Type 51 = experiment: Viral sensitivity, filter disc method; type: cell-based; details: strain 605CV45; about 50 mcg per disc, HeLa
Experimental: as §1, §2

Rhinovirus Type 52 = experiment: Viral sensitivity, filter disc method; type: cell-based; details: strain 515-CV34; about 50 mcg per disc, HeLa
Experimental: as §1, §2

Rhinovirus Type 9 = experiment: Viral sensitivity, filter disc method; type: cell-based; details: strain 211CV13; about 50 mcg per disc, HeLa
Experimental: as §1, §2

Rhinovirus strain 5 = experiment: Protection of tissue from cytopathic effects (plaque inhibition, filter paper disc or agar overlay); details: 33°, 3 to 5 days
Rhinovirus strain 23 = experiment: as above; details: 33°, 3 to 5 days

## N=C(Nc1ccccc1)Nc1nc(-c2ccccc2)cs1 [1-(4-phenyl-2-thiazolyl)-3-phenylguanidine]
Rhinovirus Serotype 14
  IC50: 0.8 to 1.6 µg/mL (≈ 2.72 to 5.44 µM)
Rhinovirus Serotype 39
  IC50: 0.4 µg/mL (≈ 1.36 µM)
Coxsackievirus A-5
  IC50: 0.4 µg/mL (≈ 1.36 µM)
Coxsackievirus A-11
  IC50: 1.6 to 3.1 µg/mL (≈ 5.44 to 10.5 µM)
Coxsackievirus B-1
  IC50: 1.6 to 3.1 µg/mL (≈ 5.44 to 10.5 µM)
Coxsackievirus B-2
  IC50: 0.8 to 1.6 µg/mL (≈ 2.72 to 5.44 µM)
Coxsackievirus B-5
  IC50: 0.8 to 1.6 µg/mL (≈ 2.72 to 5.44 µM)
Rhinovirus Serotype 1B; 24 hours, cultures treated with 0.4 to 0.8 mcg/ml
  suppression of virus yield: 1-2 logs
Rhinovirus Serotype 1B; 0.4 mcg/ml, 0 Hour to +6 Hour, 24 Hours, no drug 7.0
  Virus yield: 5.2 Plaque-Forming Units/ml. (Log
Rhinovirus Serotype 1B; 0.4 mcg/ml, 0 Hour to +6 Hour, 48 Hours, no drug 7.0
  Virus yield: 5.8 Plaque-Forming Units/ml. (Log
Rhinovirus Serotype 1B; 0.4 mcg/ml, +1 Hour to +7 Hour, 24 Hours, no drug 7.0
  Virus yield: 6.4 Plaque-Forming Units/ml. (Log
Rhinovirus Serotype 1B; 0.4 mcg/ml, +1 Hour to +7 Hour, 48 Hours, no drug 7.2
  Virus yield: 7.1 Plaque-Forming Units/ml. (Log
Rhinovirus Serotype 1B; 0.8 mcg/ml, 0 Hour to +6 Hour, 24 Hours, no drug 7.0
  Virus yield: 5.7 Plaque-Forming Units/ml. (Log
Rhinovirus Serotype 1B; 0.8 mcg/ml, 0 Hour to +6 Hour, 48 Hours, no drug 7.0
  Virus yield: 6.3 Plaque-Forming Units/ml. (Log
Rhinovirus Serotype 1B; 0.8 mcg/ml, +1 Hour to +7 Hour, 24 Hours, no drug 7.0
  Virus yield: 6.0 Plaque-Forming Units/ml. (Log
Rhinovirus Serotype 1B; 0.8 mcg/ml, +1 Hour to +7 Hour, 48 Hours, no drug 7.2
  Virus yield: 7.4 Plaque-Forming Units/ml. (Log
Rhinovirus Serotype 1B; 1.6 mcg/ml, 0 Hour to +6 Hour, 24 Hours, no drug 7.0
  Virus yield: 5.5 Plaque-Forming Units/ml. (Log
Rhinovirus Serotype 1B; 1.6 mcg/ml, 0 Hour to +6 Hour, 48 Hours, no drug 7.0
  Virus yield: 6.2 Plaque-Forming Units/ml. (Log
Rhinovirus Serotype 1B; 1.6 mcg/ml, +1 Hour to +7 Hour, 24 Hours, no drug 7.0
  Virus yield: 5.4 Plaque-Forming Units/ml. (Log
Rhinovirus Serotype 1B; 1.6 mcg/ml, +1 Hour to +7 Hour, 48 Hours, no drug 7.2
  Virus yield: 6.6 Plaque-Forming Units/ml. (Log
Rhinovirus Serotype 1B; 3.1 mcg/ml, 0 Hour to +6 Hour, 24 Hours, no drug 7.0
  Virus yield: 5.5 Plaque-Forming Units/ml. (Log
Rhinovirus Serotype 1B; 3.1 mcg/ml, 0 Hour to +6 Hour, 48 Hours, no drug 7.0
  Virus yield: 6.1 Plaque-Forming Units/ml. (Log
Rhinovirus Serotype 1B; 3.1 mcg/ml, +1 Hour to +7 Hour, 24 Hours, no drug 7.0
  Virus yield: 4.7 Plaque-Forming Units/ml. (Log
Rhinovirus Serotype 1B; 3.1 mcg/ml, +1 Hour to +7 Hour, 48 Hours, no drug 7.2
  Virus yield: 6.3 Plaque-Forming Units/ml. (Log
Rhinovirus Serotype 1B; 6.2 mcg/ml, 0 Hour to +6 Hour, 24 Hours, no drug 7.0
  Virus yield: 5.8 Plaque-Forming Units/ml. (Log
Rhinovirus Serotype 1B; 6.2 mcg/ml, 0 Hour to +6 Hour, 48 Hours, no drug 7.0
  Virus yield: 6.1 Plaque-Forming Units/ml. (Log
Rhinovirus Serotype 1B; 6.2 mcg/ml, +1 Hour to +7 Hour, 24 Hours, no drug 7.0
  Virus yield: 4.5 Plaque-Forming Units/ml. (Log
Rhinovirus Serotype 1B; 6.2 mcg/ml, +1 Hour to +7 Hour, 48 Hours, no drug 7.2
  Virus yield: 5.6 Plaque-Forming Units/ml. (Log
Rhinovirus Serotype 1B; 12.5 mcg/ml, +1 Hour to +7 Hour, 24 Hours, no drug 7.0
  Virus yield: 3.8 Plaque-Forming Units/ml. (Log
Rhinovirus Serotype 1B; 12.5 mcg/ml, +1 Hour to +7 Hour, 48 Hours, no drug 7.2
  Virus yield: 5.2 Plaque-Forming Units/ml. (Log
Rhinovirus 32
  Virus Isolation From Nasal Washings: 0
[1]; by inhibitory effects on virus plaque formation and virus yield
  inhibition of virus growth: concentration-related inhibition
[1]; human cell cultures
  activity against rhinoviruses and other picornaviruses: active against a broad spectrum of rhinoviruses and other picornaviruses
rhinoviruses
  activity against rhinoviruses in three human epithelial cell lines: equally active
Rhinovirus Type 10
  inhibition of rhinovirus serotype (zone of 10 mm or more): inhibited
Rhinovirus Type 11
  inhibition of rhinovirus serotype (zone of 10 mm or more): inhibited
Rhinovirus Type 12
  inhibition of rhinovirus serotype (zone of 10 mm or more): inhibited
Rhinovirus Type 13
  inhibition of rhinovirus serotype (zone of 10 mm or more): inhibited
Rhinovirus Type 1B
  inhibition of rhinovirus serotype (zone of 10 mm or more): inhibited
Rhinovirus Type 21
  inhibition of rhinovirus serotype (zone of 10 mm or more): inhibited
Rhinovirus Type 22
  inhibition of rhinovirus serotype (zone of 10 mm or more): inhibited
Rhinovirus Type 25
  inhibition of rhinovirus serotype (zone of 10 mm or more): inhibited
Rhinovirus Type 26
  inhibition of rhinovirus serotype (zone of 10 mm or more): inhibited
Rhinovirus Type 29
  inhibition of rhinovirus serotype (zone of 10 mm or more): inhibited
Rhinovirus Type 34
  inhibition of rhinovirus serotype (zone of 10 mm or more): inhibited
Rhinovirus Type 38
  inhibition of rhinovirus serotype (zone of 10 mm or more): inhibited
Rhinovirus Type 50
  inhibition of rhinovirus serotype (zone of 10 mm or more): inhibited
Rhinovirus Type 51
  inhibition of rhinovirus serotype (zone of 10 mm or more): inhibited
Rhinovirus Type 52
  inhibition of rhinovirus serotype (zone of 10 mm or more): inhibited
Rhinovirus Type 9
  inhibition of rhinovirus serotype (zone of 10 mm or more): inhibited
Rhinovirus strain 5
  Protection of tissue from destruction by virus: +
Rhinovirus strain 23
  Protection of tissue from destruction by virus: +
